# Laboratory results from patent US20050279350A1, “Methods and apparatus for relieving headaches, rhinitis and other common ailments” (priority 1999, published 2005).
# Where “and” joins values, the source holds several entries; their conditions need not be identical. Equal values may be shown once. Read-outs that look alike come from different tables or passages of the source. Marks after values point to notes of the source that are not given here.
# System: human subjects with migraine and tension-type headaches, jaw pain
# Type: in vivo
# Details: for Est. Rate / Est. Total Dose / Number of Doses / Single Dose Duration / Total Dose / Total Treatment Time: self-selected effective dose; for 24-hr. Recur Rate / After Effects / Symptom Free, Minutes Post-Treatment / Symptom, Relief, Minutes Post-Treatment: moderate; for range of average dose duration / range of volume of gas: across severities
# Excerpt: The test device was a hand-held, multi-dose, disposable, dispenser that was approximately 3 to 4 inches long and 6/8 to ⅞ inches in diameter constructed as described above. The device consisted of a plastic twist-top flow regulator mounted on top of a pressurized steel cartridge containing liquid carbon dioxide. The tip of the flow regulator has a nosepiece that is the optimal size and configuration to place against and seal off a nostril for administration of the gas. In a number of subjects, the effective nasal and oral carbon dioxide flow rates, and maximum tolerable nasal and oral flow rates, were measured using a laboratory apparatus. This apparatus consisted of a flow regulator connected via tubing to a flow meter and a large tank of carbon dioxide. These flow data were used, together with the number of seconds gas was administered during therapy, to calculate the estimated dose of gas in milliliters.
# Of the total of 15 subjects included in the analysis, 11 used the treatment for 35 headaches and 9 subjects used it for 9 allergy attacks. […] subjects treated both headache and allergy but on different days. The subjects included adults, elderly, and children of both sexes in good general health, having mild, moderate, and severe headaches or having allergies to plant, animal, or airborne allergens. The device was used to treat migraine and tension-type headaches, jaw pain, and allergies (allergic rhinitis, with symptoms that included sinus congestion, sneezing, and itchy throat and eyes). There was no limitation on the duration of symptoms before treatment with the device. Subjects with no prior use of the device and those who have used it (to treat allergy symptoms) previously were included.
# Carbon dioxide (100%) was administered nasally by the subject for a few seconds via a nostril to fill the nasal passages while holding their breath, or taking breaths of room air occasionally if the dose was lengthy. The gas exited the other nostril. Such nasal administration is similar to presently marketed nasal inhalers except that the administered gas was not inhaled. […] Subjects took as many doses as they needed for relief. It is important to note that there were no number of doses, duration of dose, time between doses, or gas flow rate specified for the user. Subjects chose their own regimen for symptom relief. Similarly, in medical practice today, gas therapy is a “titrate to effect” therapy without a specified dosage.
# The International Headache Society (IHS) divides headache intensity into three categories: mild, moderate, and severe. The rating of the intensity level depends on the extent to which the headache interferes with the ability to function. […] The IHS uses headache relief at two hours as its primary outcome measure for present-day headache drug studies. Since therapy of the present invention acts much faster than present-day drugs, the primary outcome measure selected for this analysis was headache relief at 30 minutes. Each of the headache outcome measures used for this analysis is as follows: • Headache relief efficacy at 1, 5, 15, and 30 minutes post-treatment—headache relief efficacy is obtained when a pre-treatment headache severity of mild, moderate, or severe severity is improved to a post-treatment severity of none, mild, or moderate respectively. • Headache free efficacy at 1, 5, 15, and 30 minutes post-treatment—headache free efficacy is obtained when a pre-treatment headache of mild, moderate, or severe severity is improved to a post-treatment severity of none. • Headache recurrence within 24 hours post-treatment—recurrence within 24 hours is defined as no or mild headache severity after treatment that then worsened to moderate or severe headache severity within 24 hours after treatment with no use of rescue medication before the worsening. • Safety parameter—safety is defined as no adverse after-effects of treatment.
# [1] = Headache-All, mild, severe, 1 min post-treatment
# [2] = Headache-All, mild, severe, 5 min post-treatment
# [3] = Headache-All, mild, severe, 15 min post-treatment
# [4] = Headache-All, mild, severe, 30 min post-treatment
# [5] = Headache-All, severe - IHS criteria
# [6] = Headache-All, severe - IHS criteria, 1 min post-treatment
# [7] = Headache-All, severe - IHS criteria, 5 min post-treatment
# [8] = Headache-All, severe - IHS criteria, 15 min post-treatment
# [9] = Headache-All, severe - IHS criteria, 30 min post-treatment
# [10] = Migraine, mild, severe, 1 min post-treatment
# [11] = Migraine, mild, severe, 5 min post-treatment
# [12] = Migraine, mild, severe, 15 min post-treatment
# [13] = Migraine, mild, severe, 30 min post-treatment
# [14] = Migraine, severe - IHS criteria
# [15] = Migraine, severe - IHS criteria, 1 min post-treatment
# [16] = Migraine, severe - IHS criteria, 5 min post-treatment
# [17] = Migraine, severe - IHS criteria, 15 min post-treatment
# [18] = Migraine, severe - IHS criteria, 30 min post-treatment
# [19] = Tension, mild, severe, 1 min post-treatment
# [20] = Tension, mild, severe, 5 min post-treatment
# [21] = Tension, mild, severe, 15 min post-treatment
# [22] = Tension, mild, severe, 30 min post-treatment
# [23] = Tension, severe - IHS criteria, 1 min post-treatment
# [24] = Tension, severe - IHS criteria, 5 min post-treatment
# [25] = Tension, severe - IHS criteria, 15 min post-treatment
# [26] = Tension, severe - IHS criteria, 30 min post-treatment
compound,measurement,setting,value
O=C=O [carbon dioxide],headache recurrence 24 hours post-treatment,35 headaches,no instances of headache recurrence
same,Est. Rate,Headache-All,4 mL/s
same,Est. Total Dose,Headache-All,124 mL
same,Number of Doses,Headache-All,2 #
same,Single Dose Duration,Headache-All,15 s
same,Total Dose,Headache-All,32 s
same,Total Treatment Time,Headache-All,7 min
same,24-hr. Recur Rate,"Headache-All, mild, severe",0%
same,After Effects,"Headache-All, mild, severe",0%
same,"Symptom Free, Minutes Post-Treatment",[1],31%
same,"Symptom, Relief, Minutes Post-Treatment",[1],31%
same,"Symptom Free, Minutes Post-Treatment",[2],60%
same,"Symptom, Relief, Minutes Post-Treatment",[2],63%
same,"Symptom Free, Minutes Post-Treatment",[3],74%
same,"Symptom, Relief, Minutes Post-Treatment",[3],86%
same,"Symptom Free, Minutes Post-Treatment",[4],80%
same,"Symptom, Relief, Minutes Post-Treatment",[4],94%
same,24-hr. Recur Rate,[5],0%
same,After Effects,[5],0%
same,"Symptom Free, Minutes Post-Treatment",[6],16%
same,"Symptom, Relief, Minutes Post-Treatment",[6],16%
same,"Symptom Free, Minutes Post-Treatment",[7],52%
same,"Symptom, Relief, Minutes Post-Treatment",[7],52%
same,"Symptom Free, Minutes Post-Treatment",[8],72%
same,"Symptom, Relief, Minutes Post-Treatment",[8],72%
same,"Symptom Free, Minutes Post-Treatment",[9],80%
same,"Symptom, Relief, Minutes Post-Treatment",[9],84%
same,Est. Rate,Migraine-All,3 mL/s
same,Est. Total Dose,Migraine-All,158 mL
same,Number of Doses,Migraine-All,2 #
same,Single Dose Duration,Migraine-All,29 s
same,Total Dose,Migraine-All,57 s
same,Total Treatment Time,Migraine-All,15 min
same,Est. Rate,Migraine-Mild,3 mL/s
same,Est. Total Dose,Migraine-Mild,82 mL
same,Number of Doses,Migraine-Mild,1 #
same,Single Dose Duration,Migraine-Mild,23 s
same,Total Dose,Migraine-Mild,30 s
same,Total Treatment Time,Migraine-Mild,1 min
same,Est. Rate,Migraine-Severe,3 mL/s
same,Est. Total Dose,Migraine-Severe,233 mL
same,Number of Doses,Migraine-Severe,2 #
same,Single Dose Duration,Migraine-Severe,35 s
same,Total Dose,Migraine-Severe,83 s
same,Total Treatment Time,Migraine-Severe,28 min
same,24-hr. Recur Rate,"Migraine, mild, severe",0%
same,After Effects,"Migraine, mild, severe",0%
same,"Symptom Free, Minutes Post-Treatment",[10],60%
same,"Symptom, Relief, Minutes Post-Treatment",[10],60%
same,"Symptom Free, Minutes Post-Treatment",[11],60%
same,"Symptom, Relief, Minutes Post-Treatment",[11],60%
same,"Symptom Free, Minutes Post-Treatment",[12],60%
same,"Symptom, Relief, Minutes Post-Treatment",[12],60%
same,"Symptom Free, Minutes Post-Treatment",[13],90%
same,"Symptom, Relief, Minutes Post-Treatment",[13],90%
same,24-hr. Recur Rate,[14],0%
same,After Effects,[14],0%
same,"Symptom Free, Minutes Post-Treatment",[15],25%
same,"Symptom, Relief, Minutes Post-Treatment",[15],25%
same,"Symptom Free, Minutes Post-Treatment",[16],25%
same,"Symptom, Relief, Minutes Post-Treatment",[16],25%
same,"Symptom Free, Minutes Post-Treatment",[17],25%
same,"Symptom, Relief, Minutes Post-Treatment",[17],25%
same,"Symptom Free, Minutes Post-Treatment",[18],75%
same,"Symptom, Relief, Minutes Post-Treatment",[18],100%
same,Est. Rate,Tension-All,4 mL/s
same,Est. Total Dose,Tension-All,122 mL
same,Number of Doses,Tension-All,3 #
same,Single Dose Duration,Tension-All,8 s
same,Total Dose,Tension-All,24 s
same,Total Treatment Time,Tension-All,6 min
same,Est. Rate,Tension-Mild,3 mL/s
same,Est. Total Dose,Tension-Mild,28 mL
same,Number of Doses,Tension-Mild,2 #
same,Single Dose Duration,Tension-Mild,3 s
same,Total Dose,Tension-Mild,6 s
same,Total Treatment Time,Tension-Mild,2 min
same,Est. Rate,Tension-Moderate,4 mL/s
same,Est. Total Dose,Tension-Moderate,50 mL
same,Number of Doses,Tension-Moderate,2 #
same,Single Dose Duration,Tension-Moderate,6 s
same,Total Dose,Tension-Moderate,11 s
same,Total Treatment Time,Tension-Moderate,4 min
same,Est. Rate,Tension-Severe,5 mL/s
same,Est. Total Dose,Tension-Severe,288 mL
same,Number of Doses,Tension-Severe,4 #
same,Single Dose Duration,Tension-Severe,15 s
same,Total Dose,Tension-Severe,56 s
same,Total Treatment Time,Tension-Severe,11 min
same,24-hr. Recur Rate,"Tension, mild, severe",0%
same,After Effects,"Tension, mild, severe",0%
same,"Symptom Free, Minutes Post-Treatment",[19],20%
same,"Symptom, Relief, Minutes Post-Treatment",[19],20%
same,"Symptom Free, Minutes Post-Treatment",[20],64%
same,"Symptom, Relief, Minutes Post-Treatment",[20],64%
same,"Symptom Free, Minutes Post-Treatment",[21],80%
same,"Symptom, Relief, Minutes Post-Treatment",[21],96%
same,"Symptom Free, Minutes Post-Treatment",[22],80%
same,"Symptom, Relief, Minutes Post-Treatment",[22],96%
same,24-hr. Recur Rate,"Tension, severe - IHS criteria",0%
same,After Effects,"Tension, severe - IHS criteria",0%
same,"Symptom Free, Minutes Post-Treatment",[23],14%
same,"Symptom, Relief, Minutes Post-Treatment",[23],14%
same,"Symptom Free, Minutes Post-Treatment",[24],55%
same,"Symptom, Relief, Minutes Post-Treatment",[24],55%
same,"Symptom Free, Minutes Post-Treatment",[25],77%
same,"Symptom, Relief, Minutes Post-Treatment",[25],77%
same,"Symptom Free, Minutes Post-Treatment",[26],80% and 77%
same,"Symptom, Relief, Minutes Post-Treatment",[26],77%
same,headache outcome in an individual subject,"all subsequent mild and severe migraines, two to three doses for 25 sec each=120 ml",completely eliminate
same,dose dependence of the treatment,analysis of the headache and allergy therapy data (Table IV),dose dependent
same,headache outcome in an individual subject,"at onset of a migraine, doses twice for 20 to 25 seconds",completely aborts the migraine and it does not recur
same,adverse after effects of treatment,headache subjects,no subjects reported any adverse after effects
same,onset of symptom relief,"headache, while administering the first dose",immediate onset of symptom relief within seconds
same,efficacy,"migraine and tension-type headache, occurring in seconds to minutes",80-94%
same,range of average dose duration,migraine headaches,30 to 83 s
same,range of volume of gas,migraine headaches,82 to 233 mL
same,headache outcome in an individual subject,"mild migraine, first use of device, one dose for 30 sec=60 ml",unable to improve
same,headache outcome in an individual subject,"moderate tension headache, one dose of 1 sec=2 ml",no success
same,headache outcome in an individual subject,"severe jaw/tooth ache, three doses of 45 sec each=675 ml",completely eliminate
same,headache outcome in an individual subject,"severe tension headache, three doses of 15 sec each=225 ml",completely eliminate
same,headache outcome in an individual subject,"severe tension headaches, three occasions, six doses of 8 sec each=240 ml",only moderate success
same,range of average dose duration,tension-type headaches,6 to 56 s
same,range of volume of gas,tension-type headaches,28 to 288 mL
